From PMC12508156, “Non-canonical dihydrolipoyl transacetylase promotes chemotherapy resistance via mitochondrial tetrahydrofolate signaling” (Nature Communications, 2025)
Residues, ends and D or L forms follow the SMILES beside them.

How the values were obtained:
[1] = HPLC-based in vitro serum stability assay; type: in vitro ADME; conditions: 0.2 mg DMp39 incubated for indicated times with pre-warmed 50% serum, remaining peptide by heights of elution peaks, optimal dose of 20 μM
Procedure: Fig. 8 Decoy peptide DMp39 targets DLAT-mediated MTHFD2 acetylation and increases tumor chemosensitivity in vitro and in vivo. a The structure of MTHFD2. K44 containing α-helix in MTHFD2, is marked in purple. The amino acid sequence of DMp39 is shown at the top. b HPLC-based in vitro serum stability assay of DMp39. DMp39 (0.2 mg) was incubated for indicated times with pre-warmed 50% serum and applied to HPLC. […] Liver, kidney, and spleen toxicity were assessed by serum alanine aminotransferase, cystatin C, and spleen index (spleen weight (mg)/body weight (g) x 10), respectively. g Efficacy test of Cy7-DMp39 in vivo. […] MTHFD2 and Ac-K44 MTHFD2 levels in tumors were assessed by co-immunoprecipitation of MTHFD2. […] Representative images of the tumors at the endpoint are presented in (h) and (k). Ac-K44 MTHFD2, MT-CO2, and DLAT levels in both xenograft mouse tumors were assessed by IHC staining (j, m). Scale bars in (h) and (k) represent 10 mm and 25 μm in (j) and (m). Results are presented as mean ± SEM for (h, k) and mean ± SD for the rest. n = 3 per group for (e, f), n = 6 for (g) left, n = 5 for (g) right, n = 6 for (h–j), and n = 5 for (k–m). P values were obtained by one-way ANOVA. Source data are provided as a Source Data file.

[2] = Organ toxicity in mice (serum ALT, cystatin C, spleen index); type: in vivo
Procedure: K44 containing α-helix in MTHFD2, is marked in purple. The amino acid sequence of DMp39 is shown at the top. b HPLC-based in vitro serum stability assay of DMp39. DMp39 (0.2 mg) was incubated for indicated times with pre-warmed 50% serum and applied to HPLC. […] Liver, kidney, and spleen toxicity were assessed by serum alanine aminotransferase, cystatin C, and spleen index (spleen weight (mg)/body weight (g) x 10), respectively. g Efficacy test of Cy7-DMp39 in vivo. […] MTHFD2 and Ac-K44 MTHFD2 levels in tumors were assessed by co-immunoprecipitation of MTHFD2. […] Representative images of the tumors at the endpoint are presented in (h) and (k). Ac-K44 MTHFD2, MT-CO2, and DLAT levels in both xenograft mouse tumors were assessed by IHC staining (j, m). […]
Mice were subcutaneously injected into the flank with 1 × 10^6 KB-3-1^cisR cells with or without DLAT knockdown. […] The tumor volume of KB-3-1^cisR or PDX tumors was monitored by blinded measurements of two perpendicular diameters and calculated using the formula 4π/3 x (width/2)^2 x (length/2). […] Tumors were collected at the experimental endpoint, and tumor proliferation was assessed using Ki-67 IHC staining. The localization, penetration, and efficacy of DMp39 were monitored by assessing the acetyl-K44 levels in tumors and fluorescence imaging analysis using an IVIS imaging system. […]

CC[C@H](C)[C@H](NC(=O)[C@H](CCC(N)=O)NC(=O)[C@H](CCC(N)=O)NC(=O)[C@H](C)NC(=O)[C@H](CC(C)C)NC(=O)[C@H](CCCCN)NC(=O)[C@H](CCCNC(=N)N)NC(=O)CNC(=O)[C@H](CO)NC(=O)[C@@H](NC(=O)[C@@H](N)C(C)C)[C@@H](C)CC)C(=O)N[C@@H](CCCCN)C(=O)N[C@@H](CCC(N)=O)C(=O)N[C@@H](CCC(=O)O)C(=O)N[C@H](C(=O)N[C@@H](CCCNC(=N)N)C(=O)N[C@@H](CCC(N)=O)C(=O)N[C@@H](CCC(=O)O)C(=O)N[C@H](C(=O)N[C@@H](CCC(=O)O)C(=O)N[C@@H](CCC(=O)O)C(=O)N[C@@H](Cc1c[nH]c2ccccc12)C(=O)N[C@H](C(=O)N[C@@H](C)C(=O)N[C@@H](CO)C(=O)NCC(=O)N[C@@H](CC(N)=O)C(=O)N[C@@H](CCCCN)C(=O)N[C@@H](Cc1ccc(O)cc1)C(=O)NCC(=O)N[C@@H](CCCNC(=N)N)C(=O)N[C@@H](CCCCN)C(=O)N[C@@H](CCCCN)C(=O)N[C@@H](CCCNC(=N)N)C(=O)N[C@@H](CCCNC(=N)N)C(=O)N[C@@H](CCC(N)=O)C(=O)N[C@@H](CCCNC(=N)N)C(=O)N[C@@H](CCCNC(=N)N)C(=O)N[C@@H](CCCNC(=N)N)C(=O)O)C(C)C)C(C)C)C(C)C [DMp39] (H-VISGRKLAQQIKQEVRQEVEEWVASGNKYGRKKRRQRRR-OH)
time-dependent serum stability [1]: stable | toxicity markers ([2]; mice, sublethal cisplatin (5 mg/kg, twice/week for 22 days) and/or DMp39): remained at baseline levels | acute toxicity ([2]; short-term dosing in mice): no acute toxicity
